How the values were obtained:
[1] = Cytotoxicity against human HuH7 cells assessed as release of lactate dehydrogenase; assay type: cell-based, Huh-7
[2] = tested on: Hepatitis C virus; assay: Antiviral activity against HCV after 72 hrs by stable luciferase reporter gene assay; assay type: functional, organism-based, Hepacivirus hominis
[3] = tested on: Jurkat; assay: Immunosuppressive activity against human Jurkat cells assessed as inhibition of phytohemagglutinin-M/phorbol myristate acetate-induced IL2 production; assay type: cell-based
[4] = target: Peptidyl-prolyl cis-trans isomerase A (Homo sapiens, UniProt P62937); assay: Binding affinity to cyclophilin A by ELISA
Sequence of Peptidyl-prolyl cis-trans isomerase A (P62937 whole entry): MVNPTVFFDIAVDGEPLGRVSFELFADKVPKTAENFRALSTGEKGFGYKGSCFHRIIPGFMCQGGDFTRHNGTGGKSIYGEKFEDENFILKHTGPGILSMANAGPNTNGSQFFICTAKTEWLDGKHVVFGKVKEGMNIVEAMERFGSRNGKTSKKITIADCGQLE

[5] = target: Peptidyl-prolyl cis-trans isomerase B (Homo sapiens, UniProt P23284); assay: Binding affinity to cyclophilin B by ELISA
Sequence of Peptidyl-prolyl cis-trans isomerase B (P23284 whole entry): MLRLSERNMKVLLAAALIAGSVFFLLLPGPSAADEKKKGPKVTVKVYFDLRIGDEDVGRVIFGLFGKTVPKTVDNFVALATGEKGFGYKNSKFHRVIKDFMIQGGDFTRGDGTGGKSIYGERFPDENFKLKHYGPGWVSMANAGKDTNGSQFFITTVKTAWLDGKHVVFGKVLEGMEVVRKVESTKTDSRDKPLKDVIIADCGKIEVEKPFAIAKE

## C/C=C/C[C@@H](C)[C@@H](O)[C@H]1C(=O)N[C@@H](CC)C(=O)N(C)CC(=O)N(C)[C@@H](CC(C)C)C(=O)N[C@@H](C(C)C)C(=O)N(C)[C@@H](CC(C)C)C(=O)N[C@@H](C)C(=O)N[C@H](CCCCN(CC)CC)C(=O)N(C)[C@@H](CC(C)C)C(=O)N(C)[C@@H](CC(C)C)C(=O)N(C)[C@@H](C(C)C)C(=O)N1C
[1]; Homo sapiens, Huh-7
  IC50: 2240 nM
[1]; human, HuH7 cells
  IC90: 7.9 µM
[2]
  EC50: 180 nM
  EC90: 530 nM
[3]
  EC50: 2170 nM
[4]
  IC50: 26.6 nM
[5]
  IC50: 19.8 nM

— ChEMBL document CHEMBL1269000, “Synthesis and biological evaluation of [D-lysine]8cyclosporin A analogs as potential anti-HCV agents” (Bioorg Med Chem Lett, 2010)
